13 compounds from US20240226343A1, “NEUROPEPTIDE Y1 RECEPTOR (NPY1R) TARGETED THERAPEUTICS AND USES THEREOF” (RADIONETICS ONCOLOGY, INC., priority 2022, published 2024) can be followed below.

The target in this experiment is T1, hNPY1R (Homo sapiens, UniProt P25929).
T1 construct: SK-N-MC cells endogenously expressing the NPY1R receptor; endogenous in cells; host or cells: SK-N-MC cells (crude membrane fractions)
T1 sequence (P25929 1-384): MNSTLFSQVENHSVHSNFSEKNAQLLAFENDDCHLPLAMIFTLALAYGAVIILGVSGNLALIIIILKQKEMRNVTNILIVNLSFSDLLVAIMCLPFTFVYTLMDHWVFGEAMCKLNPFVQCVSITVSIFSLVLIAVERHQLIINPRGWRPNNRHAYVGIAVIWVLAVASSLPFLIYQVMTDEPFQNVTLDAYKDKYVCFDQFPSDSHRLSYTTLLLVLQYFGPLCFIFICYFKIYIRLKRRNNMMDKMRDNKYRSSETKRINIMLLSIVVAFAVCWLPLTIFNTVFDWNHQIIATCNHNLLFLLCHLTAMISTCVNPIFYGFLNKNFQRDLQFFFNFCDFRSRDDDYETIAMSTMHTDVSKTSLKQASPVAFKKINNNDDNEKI
Description: NPY1R binding assay: SK-N-MC membranes, [125I]-Peptide YY (human) competition. The conditions noted are these: SK-N-MC membranes.

Setting [1] is: data obtained after 120 minutes at rt, [125I]-Peptide YY, read-out: hNPY.R binding Ki* ††.
[2] abbreviates: data obtained after 60 minutes at 37° C., [125I]-Peptide YY 0.05 nM, read-out: hNPY1R binding Ki* †.

Molecules are shown by their SMILES. Read-outs that look alike come from different tables or passages of the source.

As a reminder, the Ki is a measure of affinity in units of concentration, obtained from inhibition or displacement.

Regarding `CCNC(=O)/N=C(/N)NCCC[C@@H](NC(=O)C(c1ccccc1)c1ccc(NCCCNC(=O)[C@@H](CCCNC(=N)N)NC(=O)[C@@H](Cc2ccc(-c3ccccc3)cc2)NC(=O)CN2CCN(CC(=O)O)CCN(CC(=O)O)CCN(CC(=O)O)CC2)cc1)C(=O)NCc1ccc(O)cc1` (single isomer, unassigned) [Compound 152], the Ki under setting [1] is under 10 nM.

As for `CCC(=O)NCCNC(=O)/N=C(/N)NCCC[C@@H](NC(=O)C(c1ccccc1)c1ccc(NCCCNc2c(NCCCCCCNC(=O)CN3CCN(CC(=O)O)CCN(CC(=O)O)CCN(CC(=O)O)CC3)c(=O)c2=O)cc1)C(=O)NCc1ccc(O)cc1` (single isomer, unassigned) [Compound 156], the Ki under setting [1] was under 10 nM.

`CCC(=O)NCCNC(=O)/N=C(/N)NCCC[C@@H](NC(=O)C(c1ccccc1)c1cccc(OCCCCNC(=O)CCCCCNC(=O)CN2CCN(CC(=O)O)CCN(CC(=O)O)CCN(CC(=O)O)CC2)c1)C(=O)NCc1c(F)cc(O)cc1F` (single isomer, unassigned) [Compound 161A]: under setting [1], the Ki is under 10 nM.

Consider `CCC(=O)NCCNC(=O)/N=C(/N)NCCC[C@@H](NC(=O)C(c1ccccc1)c1ccc(NCCCNC(=O)CCOCCOCCNC(=O)CN2CCN(CC(=O)O)CCN(CC(=O)O)CCN(CC(=O)O)CC2)cc1)C(=O)NCc1ccc(O)cc1` (single isomer, unassigned) [Compound 103A], for which the Ki under setting [2] is 10 to 100 nM. Same read-out and setting: under `CCC(=O)NCCNC(=O)/N=C(/N)NCCC[C@@H](NC(=O)C(c1ccccc1)c1cccc(OCCCCNc2c(NCCNC(=O)CN3CCN(CC(=O)O)CCN(CC(=O)O)CCN(CC(=O)O)CC3)c(=O)c2=O)c1)C(=O)NCc1ccc(O)cc1` (single isomer, unassigned) [Compound 111B] stands under 10 nM.

As to `N=C(N)NCCC[C@@H](NC(=O)[C@@H](c1ccccc1)c1cccc(OCCCCNC(=O)[C@H](N)CCCCNC(=O)CN2CCN(CC(=O)O)CCN(CC(=O)O)CCN(CC(=O)O)CC2)c1)C(=O)NCc1ccc(O)cc1` [Compound 138, 2,2′,2″-(10-(2-(((R)-5-amino-6-((4-(3-((S)-2-(((R)-5-guanidino-1-((4-hydroxybenzyl)amino)-1-oxopentan-2-yl)amino)-2-oxo-1-phenylethyl)phenoxy)butyl)amino)-6-oxohexyl)amino)-2-oxoethyl)-1,4,7,10-tetraazacyclododecane-1,4,7-triyl)triacetic acid], the inhibition constant (Ki) under setting [1] lay in the range of 10 to 100 nM. As to `CCC(=O)NCCNC(=O)/N=C(/N)NCCC[C@@H](NC(=O)C(c1ccccc1)c1cccc(OCCCCNC(=O)CCC(=O)N(CC(=O)O)C2CCN(C(=O)CN3CCN(CC(=O)O)CCN(CC(=O)O)CCN(CC(=O)O)CC3)CC2)c1)C(=O)NCc1ccc(O)cc1` (single isomer, unassigned) [Compound 117B], the Ki runs as follows: under setting [2], under 10 nM; under setting [1], under 10 nM.

In the case of `CCC(=O)NCCNC(=O)/N=C(/N)NCCC[C@@H](NC(=O)C(c1ccccc1)c1ccc(NCCCNC(=O)[C@H](N)CCCNC(=O)CN2CCC(NC(=O)CN3CCN(CC(=O)O)CCN(CC(=O)O)CCN(CC(=O)O)CC3)CC2)cc1)C(=O)NCc1ccc(O)cc1` (single isomer, unassigned) [Compound 146B], under setting [1], the Ki is under 10 nM.

With `CCC(=O)NCCNC(=O)/N=C(/N)NCCC[C@@H](NC(=O)C(c1ccccc1)c1ccc(OCCCNc2c(NCCNC(=O)CN3CCN(CC(=O)O)CCN(CC(=O)O)CCN(CC(=O)O)CC3)c(=O)c2=O)cc1)C(=O)NCc1ccc(O)cc1` (single isomer, unassigned) [Compound 136B], the Ki under setting [1] was under 10 nM. Consider `CCC(=O)NCCNC(=O)/N=C(/N)NCCC[C@@H](NC(=O)C(c1ccccc1)c1cccc(OCCCCNC(=O)[C@@H](CO)NC(=O)CCNC(=O)CN2CCN(CC(=O)O)CCN(CC(=O)O)CCN(CC(=O)O)CC2)c1)C(=O)NCc1c(F)cc(O)cc1F` (single isomer, unassigned) [Compound 165A], for which the Ki under setting [1] was under 10 nM.

Take `CCC(=O)NCCNC(=O)/N=C(/N)NCCC[C@@H](NC(=O)C(c1ccccc1)c1ccc(NCCCNC(=O)[C@H]2CC[C@H](CNC(=O)CN3CCN(CC(=O)O)CCN(CC(=O)O)CCN(CC(=O)O)CC3)CC2)cc1)C(=O)NCc1ccc(O)cc1` (stereo partly drawn) [Compound 158, 2,2′,2″-(10-(2-((((1R,4r)-4-((3-((4-((4R,Z)-9-amino-4-((4-hydroxybenzyl)carbamoyl)-2,11,16-trioxo-1-phenyl-3,8,10,12,15-pentaazaoctadec-9-en-1-yl)phenyl)amino)propyl)carbamoyl)cyclohexyl)methyl)amino)-2-oxoethyl)-1,4,7,10-tetraazacyclododecane-1,4,7-triyl)triacetic acid]: the Ki under setting [1] is under 10 nM. Still for that read-out and setting: with `CCC(=O)NCCNC(=O)/N=C(/N)NCCC[C@@H](NC(=O)C(c1ccccc1)c1cccc(OCCCCNC(=O)NNC(=O)CCNC(=O)CN2CCN(CC(=O)O)CCN(CC(=O)O)CCN(CC(=O)O)CC2)c1)C(=O)NCc1c(F)cc(O)cc1F` (single isomer, unassigned) [Compound 166] the figure was under 10 nM. As for `CCC(=O)NCCNC(=O)/N=C(/N)NCCC[C@@H](NC(=O)C(c1ccccc1)c1cccc(OCCCCNC(=O)CC[C@@H](NC(=O)CN2CCN(CC(=O)O)CCN(CC(=O)O)CCN(CC(=O)O)CC2)C(=O)O)c1)C(=O)NCc1ccc(O)cc1` (single isomer, unassigned) [Compound 110B], the Ki under setting [2] was under 10 nM.
